Measurements as given in patent publication US20210346527A1, “Combination Therapy” (Advanced Accelerator Applications (Italy) SRL, priority 2018, published 2021).

Test system: CA20948 Tumor Model (neuroendocrine tumor cells)
Experiment: In vivo therapy of PRRT +/- Olaparib, CA20948 tumor model
Design: species or system BALB-c immunocompromised mice
Excerpt: FIG. 1 : In vivo therapy of PRRT +/− Olaparib. The FIG. 1A presents the tumor volume after injection in the presence of the vehicle (square), olaparib alone (full circle), PRRT alone (empty circle) or in combination with PARP inhibitor (triangle). The survival proportions are also shown in FIG. 1B after injection in the presence of the vehicle, olaparib alone, PRRT alone or in combination with PARP inhibitor.
Combination therapies using CA20948 Tumor Model
We have xenografted BALB-c immunocompromised mice with neuroendocrine tumor cells. To increase the window of opportunity, we have started PARP inhibitor administration two days prior to PRRT injection for in total 14 days.

Compound: O=C(c1cc(Cc2n[nH]c(=O)c3ccccc23)ccc1F)N1CCN(C(=O)C2CC2)CC1 [olaparib, Olaparib]
- effect on survival (compared to vehicle): No effect
- effect on tumor growth (compared to vehicle): No effect

Compound: Lutetium (177Lu) oxodotreotide [PRRT]
- speed of tumor regrowth (PRRT versus PRRT+olaparib groups): the same in both groups
- start of tumor shrinkage (after injection, xenografted mice, PARP inhibitor started two days prior to PRRT injection, in total 14 days): 3 days
